Laboratory results taken from patent publication US20080274121A1, “Inhibition of Angiogenesis by Mithramycin” (priority 2007, published 2008).

What was measured:
PANC-1 cells = experiment: PANC-1 subcutaneous xenograft, tumor volume and body weight; format: in vivo, nude mice; settings: BVZ 25 μg, MIT 0.10 mg/kg, or B+M
Description: FIG. 11. Synergistic antitumor effects of treatment with BVZ and MIT in xenograft models of human pancreatic cancer. […] C, representative tumor sizes in each group of BxPC3 model mice.
Next, we performed experiments using both BxPC3 and PANC-1 tumor cell models in which we administered PBS, BVZ (25 μg), MIT (0.10 mg/kg), or B+M to a group of nude mice.

Sp1, VEGF, CD31 (MVD) = experiment: Gene expression and microvessel formation in PANC-1 tumor tissues; format: in vivo, nude mice
Description: FIG. 13. Analysis of gene expression and microvessel formation in tumor tissues. The tumor tissues described in FIG. 2 were collected and processed as described in Materials and Methods. A, total protein lysates were harvested from tumor tissues, and the level of protein expression was determined using Western blot analysis. Equal protein-sample loading was monitored by probing the same membrane filter with an anti-β-actin antibody. NS, nonspecific. B, the levels of Sp1 and VEGF expression were quantitated and expressed as fold change. C, MVD was quantitated according to CD31 staining. D, immunohistochemical staining was performed using specific antibodies against Sp1, VEGF, and CD31. Representative photos of the stains are shown.
Western blot analysis. Whole-cell lysates were prepared from human pancreatic cancer cell lines and tissues (23). Standard Western blotting was performed using polyclonal rabbit antibodies against human and mouse Sp1, VEGF, and EGFR (Santa Cruz Biotechnology, Santa Cruz, Calif.) and the anti-rabbit IgG antibody, a horseradish peroxidase-linked F(ab′)2 fragment obtained from a donkey (Amersham, Arlington Heights, Ill.). Equal protein-sample loading was monitored by probing the same membrane filter with antibodies against anti-β-actin or glyceraldehyde-3-phosphate dehydrogenase (GAPDH) (23). The probe proteins were detected using the Amersham enhanced chemiluminescence system according to the manufacturer's instructions.
Immunohistochemical analysis and quantification of tumor MVD. For CD31 staining, frozen tissue sections (5 μm thick) were fixed in acetone. Endogenous peroxidase in the specimens was blocked using 3% hydrogen peroxide in phosphate-buffered saline (PBS) for 12 minutes. […] For quantification of tumor MVD, vessels on each section were counted in five high-power fields (magnification, ×200 [×20 objective and ×10 ocular]) as described previously (41). […]

H727 cells = experiment: Viable cell count in vitro, H727; format: cell-based, human; settings: 0 to 100 μg/ml BVZ, 5 days
Description: FIG. 18. Effects of treatment with BVZ and MIT on the growth of and gene expression in human carcinoid cells in vitro. A. H727 and BON-1 cells were incubated for 5 days in a medium alone or a medium containing 25 to 100 μg/ml BVZ. The viable cells were counted. B. H727 cells were incubated for 5 days in a medium alone or a medium containing 100 μg/ml BVZ. Total protein lysates were harvested from the cell cultures, and the level of Sp1 and VEGF protein expression was determined using Western blot analysis. Equal protein-sample loading was monitored by probing the same membrane filter with an anti-GAPDH. C. H727 and BON-1 cells were treated with MIT at concentrations ranging from 0.1 to 2.5 μM for 24 hours. Cytotoxicity was assessed using the MTT assay.
Effects of treatment with BVZ and MIT on the growth of and gene expression in human LGNET cells. To further determine whether treatment with BVZ directly impacts gene expression in LGNET cells, we incubated H727 and BON-1 cells in a medium alone or a medium containing 0 to 100 μg/ml BVZ for 5 days.

BON-1 cells = experiment: BON-1 carcinoid subcutaneous xenograft
Description: H727 and BON-1 cells were injected into the subcutis of nude mice (n=5). When tumors reached around 4 mm in diameter, the animals received different doses of MIT (0.10 [M-10], 0.20 [M-20], and 0.40 [M-40] mg/kg) via intraperitoneal injection twice a week. Tumors were measured once every week, and at each measurement, the mean±standard deviation (SD) tumor volume in the five mice in each group was calculated (A).
H727 and BON-1 cells were injected subcutaneously into nude mice. […] A. Tumors were measured once every week, and at each measurement, the mean±SD tumor volume in the five mice in each group was calculated. B. Mouse body weights were measured. The asterisks indicate the statistical significance (P<0.01) in a comparison between the treated and respective control groups.
Mithramycin-A (MIT, 1 mg/vial crystal powder; lot 055K4011) was purchased from Sigma Chemical Co. (St. Louis, Mo.) and diluted in sterile water. BVZ (25 mg/ml; NDC 50242-060-01) from Genentech, Inc. (South San Francisco, Calif.) was purchased. For animal experiments, MIT (0.1 to 0.4 mg/kg body weight) and BVZ (25 to 100 μg/mouse) were administered by intraperitoneal or subcutaneous injections twice a week or as otherwise stated.
Female athymic BALB/c nude mice were purchased from The Jackson Laboratory (Bar Harbor, Me.). The mice were housed in laminar flow cabinets under specific pathogen-free conditions and used when they were 8 weeks old.
H727 and BON-1 tumor cells were injected into the subcutis of mice as described in the Materials and Methods. […] Moreover, the residual tumors were harvested and angiogenesis was assessed by CD31 staining.
Synergistic antitumor effects of BVZ and MIT in human LGNET model. […] To test this hypothesis, we determined whether modulating Sp1 expression and/or activity impacts the efficacy of anti-angiogenic treatment of BVZ. […]
H727 and BON-1 cells were injected subcutaneously into nude mice and then administered treatment to them as described in FIG. 20. We monitored animal survival daily until termination of the experiment 160 days after tumor-cell injection.

bevacizumab [BVZ]
antitumor activity at low dose (PANC-1 cells): marginal antitumor activity
MVD (Sp1, VEGF, CD31 (MVD); CD31 staining, low-dose BVZ or MIT alone): did not significantly reduce MVD
expression of platelet-derived growth factor, IGF-R, and EGFR in tumor tissue (Sp1, VEGF, CD31 (MVD); Western blot, data not shown): upregulated the expression of other proangiogenic molecules
Sp1 and VEGF expression in tumor tissue (Sp1, VEGF, CD31 (MVD); Western blot, mice treated with PBS, BVZ, MIT, or B+M (low doses)): increased expression of Sp1 and its downstream molecule VEGF
cell growth in vitro (H727 cells): did not affect the growth
antitumor activity at low dose (BON-1 cells; BVZ 25 μg, MIT 0.10 mg/kg, alone or combined, i.p. twice a week): marginal antitumor activity
body weight (BON-1 cells; BVZ alone): no discernable effects on body weight
animal survival (BON-1 cells; compared with PBS, 160 days): slightly increased survival rate
